Data: patent US7115545B1, “Tricyclic benzoylpyrazole derivatives used as a herbicide” (BASF Aktiengesellschaft, priority 1999, dated 2006)

Assays:
Chenopodium album = assay: greenhouse post-emergence herbicidal test; format: in vivo; details: post-emergence method, application rates of 0.5 or 0.25 kg/ha, Chenopodium album (lambsquarters)
Source text: (§1) The seeds of the test plants were sown separately for each species. For post-emergence treatment, the test plants were first grown to a plant height of from 3 to 15 cm, depending on the plant habit, and only then treated with the active compounds which had been suspended or emulsified in water. For this purpose, the test plants were either sown directly and grown in the same containers, or they were first grown separately as seedlings and transplanted into the test containers a few days prior to the treatment. The application rate for the post-emergence treatment was 0.5 or 0.25 kg of a.s./ha. Depending on the species, the plants were kept at 10–25° C. or 20–35° C. The test period extended over 2 to 4 weeks. During this time, the plants were tended, and their response to the individual treatments was evaluated. Evaluation was carried out using a scale from 0 to 100. 100 means no emergence of the plants, or complete destruction of at least the above-ground parts, and 0 means no damage, or normal course of growth. The plants used in the greenhouse trials were of the following species: [table]

Echinochloa crusgalli = assay: greenhouse post-emergence herbicidal test; format: in vivo; details: post-emergence method, application rates of 0.5 or 0.25 kg/ha, Echinochloa crusgalli (barnyardgrass)
Source text: as §1

Setaria viridis = assay: greenhouse post-emergence herbicidal test; format: in vivo; details: post-emergence method, application rates of 0.5 or 0.25 kg/ha, Setaria viridis (green foxtail)
Source text: as §1

Solanum nigrum = assay: greenhouse post-emergence herbicidal test; format: in vivo; details: post-emergence method, application rates of 0.5 or 0.25 kg/ha, Solanum nigrum (black nightshade)
Source text: as §1

Veronica ssp. = assay: greenhouse post-emergence herbicidal test; format: in vivo; details: post-emergence method, application rates of 0.5 or 0.25 kg/ha
Source text: as §1

For `Cn1ncc(C(=O)c2ccc(S(C)(=O)=O)c3c2CC2CON=C32)c1OC(=O)c1ccccc1` (stereo not drawn) [compound 2.2, (5-Phenylcarbonyloxy-1-methyl-1H-pyrazol-4-yl)-(8-methyl-sulfonyl-3a,4-dihydro-3H-indeno[1,2-c]isoxazol-5-yl)methanone], the herbicidal activity (Chenopodium album) was “very good activity”, the herbicidal activity (Echinochloa crusgalli) was “very good activity” and the herbicidal activity (Setaria viridis) was “very good activity”. For the same molecule, the herbicidal activity (Solanum nigrum) was “very good activity”, the herbicidal activity (Veronica ssp.) was “very good activity” and the melting point was 86 to 93 °C.
